For twelve compounds, TGI and GI50 results are on record in PubChem BioAssay (NCI).

Common to all, as to assay: growth of human tumour cells (NCI), 48 h
The subject of test [1] is 786-0 renal.
Test [2] relates to CCRF-CEM leukemia.
The test system of test [3] is IGROV1 ovarian.
In test [4] the test system is NCI-H23 lung.
Test [5] relates to OVCAR-3 ovarian.
Test [6] relates to OVCAR-8 ovarian.
The test system of test [7] is SF-268 CNS.
The test system of test [8] is SN12C renal.
The subject of test [9] is UO-31 renal.

Several values for one entry are separate records, joined by “and”; a condition that tells them apart may be missing. Equal values may be shown once.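 96-well plates; 48 h exposure; 5 concentrations. Endpoints by linear interpolation between flanking doses. Not reached: highest tested concentration assigned. Here, GI50 denotes the concentration required for 50% inhibition of growth. At the TGI there is no net growth.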

For `COC1(C)CP(=O)(OC(C)C)CC(C)=C1Cl` (centres undefined), the TGI was 60 µM in [1]; 15.7 µM in test [2]; 29.6 µM in test [3]; 32.4 µM in [4]; 24.2 µM in [5]; greater than 100 µM in [6]. The TGI was greater than 100 µM in test [7], 45.8 µM in test [8] and 34.2 µM in test [9].
In the case of `CC(=O)OCC1OC(NC(=S)N/N=C2\CC(c3ccccc3)Oc3ccccc32)C(OC(C)=O)C(OC(C)=O)C1OC(C)=O` (centres undefined), the TGI in [1], in [2], in [3], in [4], in test [5] and in [6] was greater than 100 µM each time. Besides, the TGI in test [7], in [8] and in test [9] was greater than 100 µM throughout.
As to `CCCCCCCC[C@@H](O)CC(=O)N[C@@H](CC(N)=O)C(=O)N[C@@H](CCC(N)=O)C(=O)N[C@@H](CC(=O)c1cc(C)cc(O)c1C(=O)c1c(O)cccc1O)CC(C)C`, the GI50 was 0.507 µM in test [1]; 0.398 µM in test [2]; 0.261 µM in test [3]; 1.36 µM in test [4]; 0.307 µM in test [5]; 3.23 µM in test [6]. The GI50 in test [7] was 0.374 µM; in test [8], 2.13 µM; in [9] it was 3.9 µM. Moreover, the TGI was 9.84 µM in test [1]; greater than 100 µM in test [2]; greater than 100 µM in [3]; 14.8 µM in test [4]; 1.2 µM in test [5]; 46.6 µM in test [6]. Moreover, the TGI in test [7] worked out at 2.55 µM; in [8] it was 15.8 µM; in test [9], 24.7 µM.
For the compound `Cc1c(C(=O)C/C(=N/NC(=O)C[N+](C)(C)C)C(=O)Nc2ccc(Cl)cc2)[n+](=O)c2ccccc2n1O`, the TGI in [1], in test [2], in [3], in test [4], in [5] and in test [6] was greater than 100 µM in each case. For the same compound, the TGI in test [7], in test [8] and in test [9] was greater than 100 µM throughout.
For the compound `COc1cc[nH]c1/C=C1\C(=O)Nc2ccc(F)c(C#CC3(O)CCNCC3)c21`, the GI50 was 0.106 µM in [1]; 0.0779 µM in [2]; 0.383 µM in [3]; 0.161 µM in test [4]; 0.35 µM in [5]; 0.172 µM in test [6]. The GI50 in test [7] is 0.196 µM; in test [8], 0.0626 µM; in [9], 0.119 µM. In addition, the TGI in test [1] was 1.68 µM; in test [2] it was 0.836 µM; in test [3] it was 2.27 µM; in [4], 1.14 µM; in test [5], 1.55 µM; in test [6] it was 1.65 µM. Also, the TGI in [7] is 0.848 µM; in test [8] it was 2.5 µM; in test [9] it was 2.19 µM.
For `CCCC1N2CCCCC2[C@@H]2c3[nH]c4ccccc4c3CCN12` (some centres undefined), the TGI in [1], in test [2], in test [3], in test [4], in test [5] and in [6] was greater than 100 µM each time. Also, the TGI in [7], in [8] and in test [9] was greater than 100 µM each time.
`Cc1ccc(-c2nc3nc(-c4ccccc4)nc(N4CCCNCC4)c3o2)cc1`: the GI50 in [1] is 1.52 µM; in [2] it was 1.89 µM; in test [3], 1.74 µM; in test [4] it was 1.89 µM; in test [5], 1.84 µM; in [6], 2.06 µM. Further, the GI50 in test [7] was 1.74 µM; in [8], 1.56 µM; in test [9] it was 1.55 µM. The TGI in test [1] was 2.97 µM; in [2], 4.23 µM; in test [3], 3.39 µM; in test [4], 3.8 µM; in test [5], 3.32 µM; in [6], 4.1 µM. Further, the figures for the TGI in test [7], in test [8] and in test [9] were 3.63 µM, 3.06 µM and 2.96 µM, respectively.
As for `O=C1c2ccccc2C(=O)N1CCc1ncc[nH]1`, the TGI in [1], in [2], in test [3], in test [4], in test [5] and in test [6] was greater than 100 µM throughout. Further, the TGI in test [7], in test [8] and in test [9] was greater than 100 µM in each case.
With `CN(C)/N=C(/CC(O)(C(F)(F)F)C(F)(F)F)c1ccc([N+](=O)[O-])cc1`, the TGI in test [1], in [2], in [3], in test [4], in test [5] and in [6] was greater than 100 µM each time. The TGI in test [7], in [8] and in [9] was greater than 100 µM throughout.
With `CC(=O)O[C@H]1C(=O)[C@@]2(C)C(C(OC(=O)c3ccccc3)[C@]3(O)CC(OC(=O)[C@H](OC(=O)CCC(=O)O)C(NC(=O)c4ccccc4)c4ccccc4)C(C)=C1C3(C)C)C1(OC(C)=O)COC1C[C@@H]2O` (some centres undefined), the GI50 is 0.0303 µM and 0.108 µM in test [1]; 0.0159 µM and 0.038 µM in test [6]; < 0.01 µM and 0.0287 µM in test [8]; 14 µM and 61.4 µM in test [9]. The TGI in test [1] is greater than 100 µM; in [2], 0.658 µM and 1.57 µM; in test [3], > 67.7 µM and 50 µM; in test [4], greater than 100 µM; in test [5] it was 1.76 µM and 0.459 µM; in test [6] it was greater than 100 µM. The TGI in test [7], in test [8] and in test [9] was greater than 100 µM in each case.
Regarding `Cc1ccc(NC(=O)CC(=O)n2nc(C)c(N=Nc3ccccc3C(=O)O)c2C)cc1`, the TGI in test [1], in test [2], in test [3], in test [4], in test [5] and in [6] was greater than 100 µM in each case. For the same compound, the TGI in [7], in [8] and in test [9] was greater than 100 µM each time.
As to `Nc1cccc(S(=O)(=O)NCC(=O)O)c1`, the TGI in test [1], in test [2], in test [3], in test [4], in [5] and in test [6] was greater than 100 µM each time. The TGI in test [7], in [8] and in [9] was greater than 100 µM in each case.
